Results from PubChem BioAssay (NCI).
Values joined by “and” are separate entries in the source; they are usually repeats but may differ in a detail not shown here. Equal values may be shown once.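 Growth conditions: 96-well plates. Treatment: test compound, 48 hours, 5 concentrations. Analysis: linear interpolation between bracketing concentrations; unreached endpoints set to highest concentration. GI50: concentration for 50% inhibition of growth. TGI: concentration producing complete growth inhibition.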

What was measured:
Assay in all cases: inhibition of tumour cell growth, NCI panel, 48 h
[1] = system: CAKI-1 renal
[2] = system: HCC-2998 colon
[3] = system: TK-10 renal
[4] = system: EKVX NSCLC
[5] = system: HCT-15 colon
[6] = system: UACC-257 melanoma
[7] = system: SK-MEL-5 melanoma
[8] = system: LOX IMVI melanoma
[9] = system: HT29 colon
[10] = system: UO-31 renal

Row | SMILES | GI50 [1] [µM] | TGI [1] | GI50 [2] [µM] | TGI [2] | GI50 [3] [µM] | TGI [3] | GI50 [4] [µM] | TGI [4] | GI50 [5] [µM] | TGI [5] | GI50 [6] [µM] | TGI [6] | GI50 [7] [µM] | TGI [7] | GI50 [8] [µM] | TGI [8] | GI50 [9] [µM] | TGI [9] | GI50 [10] [nM] | TGI [10]
1 | Oc1ccc(C(c2ccc(O)cc2)c2ccc(Cl)cn2)cc1 | 22.1 | > 100 µM | 0.279 | 9.36 µM | 0.0951 | 0.525 µM | 0.349 | 6.59 µM | 0.337 | 56.1 µM | 23.1 | > 100 µM | 15.6 | 34.5 µM | 0.295 | > 100 µM | 4.97 | > 100 µM | 2040 | > 100 µM
2 | O=Cc1ccccc1OCCOc1cc(OCCOc2ccccc2C=O)c(OCCOc2ccccc2C=O)cc1OCCOc1ccccc1C=O |  | > 100 µM |  | > 100 µM |  | 96.8 µM |  | > 100 µM |  | > 100 µM |  | > 100 µM |  | > 100 µM |  | > 100 µM |  | > 100 µM |  | > 100 µM
3 | CCCC(=O)Nc1cc(C(=O)N2C[C@@H]3C[C@]34C2=CC(=O)c2[nH]cc(C)c24)n(COC)c1 | 4.25 | 13 µM and 17.3 µM | 2.88 | 9.71 µM and 10.2 µM | 3.3 | 23 µM and 7.37 µM | 5.62 | 30 µM and 25.2 µM | 13.9 | 50 µM and 33.3 µM | 3.03 | 32.4 µM and 6.62 µM |  | 5.38 µM and 3.24 µM | 2.06 | 30 µM and 7.17 µM |  | 24.6 µM and 29 µM | 26700 | 17.3 µM and 94.4 µM
4 | CCOC(=O)C1(Br)C(c2ccccc2)NC(=O)NC1(C)Br (stereo not drawn) |  | > 62.4 µM |  | > 100 µM |  | > 100 µM |  | > 100 µM |  | > 100 µM |  | > 100 µM |  | > 100 µM |  | > 58.4 µM |  | > 100 µM |  | > 100 µM
5 | O=C1C=C(NCCNC(=S)Nc2ccccc2)c2nccc3c2c1nc1ccccc13 | 33.6 | > 100 µM | 17.6 | > 100 µM | 51.9 | > 100 µM | > 100 | > 100 µM | 34.9 | > 100 µM | 93.2 | > 100 µM | 27.5 | > 100 µM | 31.5 | > 100 µM | 44.6 | > 100 µM | > 100000 | > 100 µM
6 | COC(=O)C1C(O)CC(c2ccccn2)N(Cc2ccccc2)C1c1ccccn1 (stereo not drawn) |  | > 100 µM |  | > 100 µM |  | > 100 µM |  | > 100 µM |  | > 100 µM |  | > 100 µM |  | > 100 µM |  | > 100 µM |  | > 100 µM |  | > 100 µM
7 | CC1(C)CC[C@H](Nc2ncc(C(F)(F)F)c(-c3c[nH]c4c(P(C)(C)=O)c(C#N)ccc34)n2)CN1 | 0.0361 | > 37.6 µM | 0.0375 | 11.6 µM | 0.711 | > 53.9 µM | < 0.0113 | 9.27 µM | 0.21 | 15.1 µM | < 0.01 | 6.83 µM | 0.0666 | 2.27 µM | 0.0297 | 7.44 µM | < 0.0259 | > 27.7 µM | 377 | 5.11 µM
8 | COc1ccc(Nc2ncc(Br)c(NCCCNC(=O)C3CCC3)n2)cc1 | 5.21 | 31.6 µM | 21.7 | 58.1 µM | 5.46 | 38.7 µM | 20.5 | 83.9 µM | 14.7 | 62.5 µM | 68.9 | > 100 µM | 13 | 35.1 µM | 4.06 | 18.1 µM | 18.7 | 85.4 µM | 2550 | 13.5 µM
9 | COc1ccc(-c2cc(=O)c3c(C)cc(C)nc3[nH]2)cc1 |  | 82.9 µM |  | > 100 µM |  | 99.2 µM |  | > 100 µM |  | > 100 µM |  | 85.3 µM | 17.6 | 33.1 µM |  | > 100 µM |  | > 100 µM |  | > 100 µM
10 | COc1cc(CCN)c2c(c1OC)SSSSS2 | 0.503 | 1.11 µM | 0.384 | 2.08 µM | 1.42 | 3.03 µM | 1.26 | 2.59 µM | 0.319 | 1.44 µM | 2.58 | 6.8 µM | 0.712 | 2.23 µM | 0.0127 |  | 0.34 | 1.39 µM | 262 | 1.12 µM
11 | O=C(c1ccc(Cl)cc1)c1ccc(OCCCCCCCCCCOc2ccc(C(=O)c3ccc(Cl)cc3)cc2)cc1 |  | > 100 µM |  | > 100 µM |  | > 100 µM |  | > 100 µM |  | > 100 µM |  | > 100 µM |  | > 100 µM |  | > 100 µM |  | > 100 µM |  | > 100 µM
12 | Cc1c(S(C)(=O)=O)c(-c2cc(F)cc(N3CCN(c4ccc(NS(=O)(=O)c5ccc(N[C@H](CCN6CCC(C(=O)OCCCP(=O)(O)O)CC6)CSc6ccccc6)c(S(=O)(=O)C(F)(F)F)c5)cc4)CC3)c2)c(-c2ccc(Cl)cc2)n1C(C)C | > 100 | > 100 µM | 2.13 | > 100 µM | 25.8 | > 100 µM | > 100 | > 100 µM | > 100 | > 100 µM | > 100 | > 100 µM | > 100 | > 100 µM | > 100 | > 100 µM | > 100 | > 100 µM | > 100000 | > 100 µM
13 | COc1ccc(-c2nc3sc(-c4ccc(Cl)cc4)cn3n2)cc1 | 1.79 | 8.92 µM | > 50 | > 50 µM | 2.01 | 5.62 µM | 4.82 | > 50 µM | 24.5 | > 50 µM | > 50 | > 50 µM | 14 | > 50 µM | > 50 | > 50 µM | 2.96 | > 50 µM | 1190 | 4.51 µM
14 | C/C(=N\O)c1cccc(Nc2cc(-n3ccnn3)c3ccccc3n2)c1 | 21.3 | 70.6 µM | 20.5 | 56.5 µM | 16.9 | 46.3 µM | 19 | 76.1 µM | 13.5 | 27.4 µM | 12.9 | 27.9 µM | 13.4 | 26.2 µM | 15.4 | 30.4 µM | 2.17 | 82.5 µM | 16200 | 37.5 µM
15 | COc1ccc2c(c1)C(=O)c1c-2n(CCCN=[N+]=[N-])c(=O)c2cc(N(C)C)ccc12 | > 100 | > 100 µM | > 100 | > 100 µM | > 100 | > 100 µM | > 100 | > 100 µM | > 100 | > 100 µM | > 100 | > 100 µM | 23.8 | > 100 µM | > 100 | > 100 µM | > 100 | > 100 µM | > 100000 | > 100 µM
16 | OC1c2ccccc2C2(O)C1C(c1ccccc1)C(c1ccccc1)C2(O)c1ccccc1 (stereo not drawn) |  | > 100 µM |  | 28.6 µM |  | 85.4 µM |  | 70.8 µM |  | 22.2 µM |  | 29.7 µM |  | 21.7 µM |  | 21.1 µM |  | 22.8 µM |  | 55.5 µM
17 | COc1ccc(C2SCC(=O)N2NC(=O)C(O)c2ccccc2)cc1OC (stereo not drawn) | > 100 | > 100 µM | > 100 | > 100 µM | > 100 | > 100 µM | > 100 | > 100 µM | > 100 | > 100 µM | > 100 | > 100 µM | > 100 | > 100 µM | > 100 | > 100 µM | > 100 | > 100 µM | > 100000 | > 100 µM
18 | COc1cc(/C=C\c2ccccc2)cc(OC)c1OC |  | > 100 µM |  | 48.5 µM |  | > 50.3 µM |  | > 84.9 µM |  | 36 µM |  | 41.3 µM |  | 9.12 µM |  | > 100 µM |  | 14.1 µM |  | 30 µM
19 | O=C([CH-]C(=O)c1ccccc1)c1ccccc1.O=C([CH-]C(=O)c1ccccc1)c1ccccc1.O=C([CH-]C(=O)c1ccccc1)c1ccccc1.[Nd+3].[OH3+] | 5.34 | 20.8 µM | 4.73 | 19 µM | 8.51 | 74.7 µM | 2.8 | 13.9 µM | 8.7 | 53.6 µM | 7.84 | 24.6 µM | 2.79 | 11.8 µM | 11.5 | 29.4 µM | 4.64 | 16.1 µM | 2850 | 8.19 µM
20 | O=c1[nH]c(=O)n([C@@H]2C[C@H](CO)[C@H](O)C2)cc1/C=C/Br |  | > 100 µM |  | > 100 µM |  | > 100 µM |  | > 100 µM |  | > 100 µM |  | > 100 µM |  | > 100 µM |  | > 100 µM |  | > 100 µM |  | > 100 µM
